Data taken from patent US20040013730A1, “Non-hormonal vaginal contraceptive” (priority 2003, published 2004).

Legend:
human sperm = assay: Efficacy of metal salts, albumin and dextran on motility of human sperm in vitro; conditions: for concentration at which spermiostatic (motility of sperm arrested): human sperm in vitro
human cervical mucus = assay: Cervical mucus score (WHO): viscosity, ferning, spinnbarkeit, cellularity, pH; conditions: for TOTAL cervical mucus score: pH not included
[1] = ascorbic acid 0.31%, fourth sample (undated)
[2] = ascorbic acid 0.31%, sample Jun. 22, 2000
[3] = ascorbic acid 0.31%, sample Jun. 23, 2000
[4] = ascorbic acid 0.31%, third sample (undated)
[5] = ascorbic acid 0.63%, fourth sample (undated)
[6] = ascorbic acid 0.63%, sample Jun. 22, 2000
[7] = ascorbic acid 0.63%, sample Jun. 23, 2000
[8] = ascorbic acid 0.63%, third sample (undated)
[9] = ascorbic acid 1%, fourth sample (undated)
[10] = ascorbic acid 1%, sample Jun. 22, 2000
[11] = ascorbic acid 1%, sample Jun. 23, 2000
[12] = ascorbic acid 1%, third sample (undated)
[13] = ascorbic acid 1.25%, fourth sample (undated)
[14] = ascorbic acid 1.25%, sample Jun. 22, 2000
[15] = ascorbic acid 1.25%, sample Jun. 23, 2000
[16] = ascorbic acid 1.25%, third sample (undated)
[17] = ascorbic acid 2.50%, fourth sample (undated)
[18] = ascorbic acid 2.50%, sample Jun. 22, 2000
[19] = ascorbic acid 2.50%, sample Jun. 23, 2000
[20] = ascorbic acid 2.50%, third sample (undated)
[21] = ascorbic acid 5%, fourth sample (undated)
[22] = ascorbic acid 5%, sample Jun. 22, 2000
[23] = ascorbic acid 5%, sample Jun. 23, 2000
[24] = ascorbic acid 5%, third sample (undated)
[25] = ascorbic acid 10%, fourth sample (undated)
[26] = ascorbic acid 10%, sample Jun. 22, 2000
[27] = ascorbic acid 10%, sample Jun. 23, 2000
[28] = ascorbic acid 10%, third sample (undated)

Compound: ferrous gluconate
- immobilization of sperm (human sperm; 25 mM solution): 97.4%
- immobilization of sperm (human sperm; 37.5 mM solution): completely immobilized all the sperm
- additional spermiostatic effect (human sperm; 2.5% dextran added to 12.5-mM ferrous gluconate solution): no additional spermiostatic effect
- enhancement of the spermiostatic effect (human sperm; 2.5% dextran and 5% albumin added to 12.5 mM ferrous gluconate): no enhancement of the spermiostatic effect
- concentration at which spermiostatic (motility of sperm arrested) (human sperm): 12.5 mM

Compound: O=C1O[C@H]([C@@H](O)CO)C(O)=C1O [ascorbic acid, L-ascorbic acid]
- overall viscosity of the mucus (human cervical mucus; L-ascorbic acid from 0.31% to a range of 1-2.5%): increased in direct relationship with increasing concentrations
- Cellularity (cervical mucus score) (human cervical mucus; [1]): 0
- Ferning (cervical mucus score) (human cervical mucus; [1]): 0
- Spinnbarkiet (cervical mucus score) (human cervical mucus; [1]): 1 ± .35
- Viscosity (cervical mucus score) (human cervical mucus; [1]): 2 ± .79
- TOTAL cervical mucus score (human cervical mucus; [1]): 3.2
- Cellularity (cervical mucus score) (human cervical mucus; [2]): 2 ± .86
- Ferning (cervical mucus score) (human cervical mucus; [2]): 2 ± .86
- Spinnbarkiet (cervical mucus score) (human cervical mucus; [2]): 0 (less than 1 cm)
- Viscosity (cervical mucus score) (human cervical mucus; [2]): 3 ± .79
- TOTAL cervical mucus score (human cervical mucus; [2]): 7.3
- Cellularity (cervical mucus score) (human cervical mucus; [3]): 2 ± .58
- Ferning (cervical mucus score) (human cervical mucus; [3]): 0
- Spinnbarkeit (cervical mucus score) (human cervical mucus; [3]): 1 ± .35
- Viscosity (cervical mucus score) (human cervical mucus; [3]): 3 ± .79
- TOTAL cervical mucus score (human cervical mucus; [3]): 6.2
- Cellularity (cervical mucus score) (human cervical mucus; [4]): 1 ± .58
- Ferning (cervical mucus score) (human cervical mucus; [4]): 0
- Spinnbarkeit (cervical mucus score) (human cervical mucus; [4]): 0 (less than 1 cm)
- Viscosity (cervical mucus score) (human cervical mucus; [4]): 2 ± .79
- TOTAL cervical mucus score (human cervical mucus; [4]): 3.15
- Cellularity (cervical mucus score) (human cervical mucus; [5]): 0
- Ferning (cervical mucus score) (human cervical mucus; [5]): 3 ± .86
- Spinnbarkiet (cervical mucus score) (human cervical mucus; [5]): 1 ± .49
- Viscosity (cervical mucus score) (human cervical mucus; [5]): 3 ± .81
- TOTAL cervical mucus score (human cervical mucus; [5]): 7.2
- Cellularity (cervical mucus score) (human cervical mucus; [6]): 0
- Ferning (cervical mucus score) (human cervical mucus; [6]): 0
- Spinnbarkiet (cervical mucus score) (human cervical mucus; [6]): 1 ± .49
- Viscosity (cervical mucus score) (human cervical mucus; [6]): 1 ± .81
- TOTAL cervical mucus score (human cervical mucus; [6]): 2.3
- Cellularity (cervical mucus score) (human cervical mucus; [7]): 0
- Ferning (cervical mucus score) (human cervical mucus; [7]): 0
- Spinnbarkeit (cervical mucus score) (human cervical mucus; [7]): 1 ± .49
- Viscosity (cervical mucus score) (human cervical mucus; [7]): 2 ± .81
- TOTAL cervical mucus score (human cervical mucus; [7]): 3.2
- Cellularity (cervical mucus score) (human cervical mucus; [8]): 1 ± .61
- Ferning (cervical mucus score) (human cervical mucus; [8]): 0
- Spinnbarkeit (cervical mucus score) (human cervical mucus; [8]): 1 ± .49
- Viscosity (cervical mucus score) (human cervical mucus; [8]): 1 ± .81
- TOTAL cervical mucus score (human cervical mucus; [8]): 3.15
- Cellularity (cervical mucus score) (human cervical mucus; [9]): 0
- Ferning (cervical mucus score) (human cervical mucus; [9]): 3 ± .82
- Spinnbarkiet (cervical mucus score) (human cervical mucus; [9]): 1 ± .51
- Viscosity (cervical mucus score) (human cervical mucus; [9]): 2 ± .75
- TOTAL cervical mucus score (human cervical mucus; [9]): 6.2
- Cellularity (cervical mucus score) (human cervical mucus; [10]): 2 ± .82
- Ferning (cervical mucus score) (human cervical mucus; [10]): 2 ± .82
- Spinnbarkiet (cervical mucus score) (human cervical mucus; [10]): 1 ± .51
- Viscosity (cervical mucus score) (human cervical mucus; [10]): 1 ± .75
- TOTAL cervical mucus score (human cervical mucus; [10]): 6.3
- Cellularity (cervical mucus score) (human cervical mucus; [11]): 0
- Ferning (cervical mucus score) (human cervical mucus; [11]): 0
- Spinnbarkeit (cervical mucus score) (human cervical mucus; [11]): 1 ± .51
- Viscosity (cervical mucus score) (human cervical mucus; [11]): 2 ± .75
- TOTAL cervical mucus score (human cervical mucus; [11]): 3.2
- Cellularity (cervical mucus score) (human cervical mucus; [12]): 0
- Ferning (cervical mucus score) (human cervical mucus; [12]): 0
- Spinnbarkeit (cervical mucus score) (human cervical mucus; [12]): 1 ± .51
- Viscosity (cervical mucus score) (human cervical mucus; [12]): 2 ± .75
- TOTAL cervical mucus score (human cervical mucus; [12]): 3.15
- Cellularity (cervical mucus score) (human cervical mucus; [13]): 1 ± .53
- Ferning (cervical mucus score) (human cervical mucus; [13]): 2 ± 1.13
- Spinnbarkiet (cervical mucus score) (human cervical mucus; [13]): 1 ± 51
- Viscosity (cervical mucus score) (human cervical mucus; [13]): 3 ± .95
- TOTAL cervical mucus score (human cervical mucus; [13]): 7.2
- Cellularity (cervical mucus score) (human cervical mucus; [14]): 0
- Ferning (cervical mucus score) (human cervical mucus; [14]): 0
- Spinnbarkiet (cervical mucus score) (human cervical mucus; [14]): 1 ± .51
- Viscosity (cervical mucus score) (human cervical mucus; [14]): 1 ± .95
- TOTAL cervical mucus score (human cervical mucus; [14]): 2.3
- Cellularity (cervical mucus score) (human cervical mucus; [15]): 0
- Ferning (cervical mucus score) (human cervical mucus; [15]): 0
- Spinnbarkeit (cervical mucus score) (human cervical mucus; [15]): 1 ± .51
- Viscosity (cervical mucus score) (human cervical mucus; [15]): 3 ± .95
- TOTAL cervical mucus score (human cervical mucus; [15]): 4.2
- Cellularity (cervical mucus score) (human cervical mucus; [16]): 1 ± .53
- Ferning (cervical mucus score) (human cervical mucus; [16]): 0
- Spinnbarkeit (cervical mucus score) (human cervical mucus; [16]): 0 (less than 1 cm)
- Viscosity (cervical mucus score) (human cervical mucus; [16]): 1 ± .95
- TOTAL cervical mucus score (human cervical mucus; [16]): 2.15
- Cellularity (cervical mucus score) (human cervical mucus; [17]): 1 ± .49
- Ferning (cervical mucus score) (human cervical mucus; [17]): 1 ± .82
- Spinnbarkiet (cervical mucus score) (human cervical mucus; [17]): 1 ± .14
- Viscosity (cervical mucus score) (human cervical mucus; [17]): 2 ± .61
- TOTAL cervical mucus score (human cervical mucus; [17]): 5.2
- Cellularity (cervical mucus score) (human cervical mucus; [18]): 0
- Ferning (cervical mucus score) (human cervical mucus; [18]): 0
- Spinnbarkiet (cervical mucus score) (human cervical mucus; [18]): 1 ± .14
- Viscosity (cervical mucus score) (human cervical mucus; [18]): 2 ± .61
- TOTAL cervical mucus score (human cervical mucus; [18]): 3.3
- Cellularity (cervical mucus score) (human cervical mucus; [19]): 1 ± .49
- Ferning (cervical mucus score) (human cervical mucus; [19]): 0
- Spinnbarkeit (cervical mucus score) (human cervical mucus; [19]): 1 ± .14
- Viscosity (cervical mucus score) (human cervical mucus; [19]): 0
- TOTAL cervical mucus score (human cervical mucus; [19]): 2.2
- Cellularity (cervical mucus score) (human cervical mucus; [20]): 1 ± .49
- Ferning (cervical mucus score) (human cervical mucus; [20]): 0
- Spinnbarkeit (cervical mucus score) (human cervical mucus; [20]): 0 (less than 1 cm)
- Viscosity (cervical mucus score) (human cervical mucus; [20]): 1 ± .61
- TOTAL cervical mucus score (human cervical mucus; [20]): 2.15
- Cellularity (cervical mucus score) (human cervical mucus; [21]): 1 ± .66
- Ferning (cervical mucus score) (human cervical mucus; [21]): 0
- Spinnbarkiet (cervical mucus score) (human cervical mucus; [21]): 1 ± .35
- Viscosity (cervical mucus score) (human cervical mucus; [21]): 2 ± .52
- TOTAL cervical mucus score (human cervical mucus; [21]): 4.2
- Cellularity (cervical mucus score) (human cervical mucus; [22]): 0
- Ferning (cervical mucus score) (human cervical mucus; [22]): 0
- Spinnbarkiet (cervical mucus score) (human cervical mucus; [22]): 1 ± .35
- Viscosity (cervical mucus score) (human cervical mucus; [22]): 2 ± .52
- TOTAL cervical mucus score (human cervical mucus; [22]): 3.3
- Cellularity (cervical mucus score) (human cervical mucus; [23]): 0
- Ferning (cervical mucus score) (human cervical mucus; [23]): 0
- Spinnbarkeit (cervical mucus score) (human cervical mucus; [23]): 0 (less than 1 cm)
- Viscosity (cervical mucus score) (human cervical mucus; [23]): 2 ± .52
- TOTAL cervical mucus score (human cervical mucus; [23]): 2.2
- Cellularity (cervical mucus score) (human cervical mucus; [24]): 0
- Ferning (cervical mucus score) (human cervical mucus; [24]): 0
- Spinnbarkeit (cervical mucus score) (human cervical mucus; [24]): 1 ± .35
- Viscosity (cervical mucus score) (human cervical mucus; [24]): 2 ± .25
- TOTAL cervical mucus score (human cervical mucus; [24]): 2.15
- Cellularity (cervical mucus score) (human cervical mucus; [25]): 0
- Ferning (cervical mucus score) (human cervical mucus; [25]): 0
- Spinnbarkiet (cervical mucus score) (human cervical mucus; [25]): 0 (less than 1 cm)
- Viscosity (cervical mucus score) (human cervical mucus; [25]): 0
- TOTAL cervical mucus score (human cervical mucus; [25]): 0.2
- Cellularity (cervical mucus score) (human cervical mucus; [26]): 1 ± .53
- Ferning (cervical mucus score) (human cervical mucus; [26]): 1 ± .53
- Spinnbarkiet (cervical mucus score) (human cervical mucus; [26]): 1 ± .26
- Viscosity (cervical mucus score) (human cervical mucus; [26]): 1 ± .69
- TOTAL cervical mucus score (human cervical mucus; [26]): 4.3
- Cellularity (cervical mucus score) (human cervical mucus; [27]): 1 ± .51
- Ferning (cervical mucus score) (human cervical mucus; [27]): 1 ± .53
- Spinnbarkeit (cervical mucus score) (human cervical mucus; [27]): 1 ± .26
- Viscosity (cervical mucus score) (human cervical mucus; [27]): 2 ± .69
- TOTAL cervical mucus score (human cervical mucus; [27]): 5.2
- Cellularity (cervical mucus score) (human cervical mucus; [28]): 1 ± .51
- Ferning (cervical mucus score) (human cervical mucus; [28]): 0
- Spinnbarkeit (cervical mucus score) (human cervical mucus; [28]): 1 ± .26
- Viscosity (cervical mucus score) (human cervical mucus; [28]): 1 ± .69
- TOTAL cervical mucus score (human cervical mucus; [28]): 3.15

Compound: ferrous sulfate
- concentration at which spermiostatic (motility of sperm arrested) (human sperm): 10 mM

Compound: dihydrate ferrous gluconate [dihydrate form of ferrous gluconate]
- onset of spermiostatic effect (human sperm; dihydrate form of ferrous gluconate): immediate

Compound: [Cl-].[Cl-].[Mg+2] [magnesium chloride]
- concentration at which spermiostatic (motility of sperm arrested) (human sperm): 35 mM

Compound: [Ca+2].[Cl-].[Cl-] [calcium chloride]
- concentration at which spermiostatic (motility of sperm arrested) (human sperm): 25 mM

Compound: albumin
- sperm motility (human sperm; 10% albumin): decreased sperm motility almost close to that of 12.5 mM concentration of ferrous gluconate
- sperm completely immobilized (human sperm; 20% albumin): ~97%
- sperm completely immobilized (human sperm; 40% albumin): ~97%
- spermiostatic effects (human sperm; lower concentrations of albumin and dextran): not significant

Compound: O=S(=O)([O-])[O-].[Cu+2] [copper sulfate]
- immobilization of sperm (human sperm; 25 mM solution): 93.3%
- immobilization of sperm (human sperm; 37.5 mM solution): completely immobilized all the sperm
- additional spermiostatic effect (human sperm; 2.5% dextran added to 6.5-mM copper sulfate solution): no additional spermiostatic effect
- concentration at which spermiostatic (motility of sperm arrested) (human sperm): 6.25 mM
